# Data reported in the supplement of paper PMC10307832.
# Columns and labels:
# Assay in all cases: relative viability (nuclei count vs DMSO), 5 days (fraction); higher = more cells survive
# [1] = compound: COc1cc(-c2nn([C@H]3CC[C@H](N4CCN(C(C)=O)CC4)CC3)c3ncnc(N)c23)ccc1NC(=O)c1cc2ccccc2n1C + Nc1nc2[nH]cc(CCc3ccc(C(=O)N[C@@H](CCC(=O)O)C(=O)O)cc3)c2c(=O)[nH]1 [Pemetrexed] (partner 0.2 µM)
# Procedure, shortened: (§1)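 Relative viability was taken as the ratio of nuclei in treated wells to nuclei in vehicle wells. Lung cancer cell lines in 1536-well plates received compounds by pin tool one day after seeding, either one drug alone or a fixed anchor-drug dose plus five library-drug doses (not always all listed) in √10 steps. Nuclei were counted on 4× images after 5 days of treatment, and values are medians of duplicate plates.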
# [2] = compound: COc1cc(-c2nn([C@H]3CC[C@H](N4CCN(C(C)=O)CC4)CC3)c3ncnc(N)c23)ccc1NC(=O)c1cc2ccccc2n1C + C[C@@H](Oc1cc(-c2cnn(C3CCNCC3)c2)cnc1N)c1c(Cl)ccc(F)c1Cl [Crizotinib] (partner 1 µM)
# Procedure, shortened: as §1
# [3] = compound: COc1cc(-c2nn([C@H]3CC[C@H](N4CCN(C(C)=O)CC4)CC3)c3ncnc(N)c23)ccc1NC(=O)c1cc2ccccc2n1C + COc1cccc2cc(-c3nc([C@H]4CC[C@H](C(=O)O)CC4)n4ncnc(N)c34)[nH]c12 [OSI-027] (partner 0.5 µM)
# Procedure, shortened: as §1
# [4] = compound: COc1cc(-c2nn([C@H]3CC[C@H](N4CCN(C(C)=O)CC4)CC3)c3ncnc(N)c23)ccc1NC(=O)c1cc2ccccc2n1C + Nc1ncn([C@H]2C[C@H](O)[C@@H](CO)O2)c(=O)n1 [Decitabine] (partner 2 µM)
# Procedure, shortened: as §1
# [5] = compound: COc1cc(-c2nn([C@H]3CC[C@H](N4CCN(C(C)=O)CC4)CC3)c3ncnc(N)c23)ccc1NC(=O)c1cc2ccccc2n1C + CC1(C)CCC(c2ccc(Cl)cc2)=C(CN2CCN(c3ccc(C(=O)NS(=O)(=O)c4ccc(N[C@H](CCN5CCOCC5)CSc5ccccc5)c(S(=O)(=O)C(F)(F)F)c4)cc3)CC2)C1 [Navitoclax] (partner 0.5 µM)
# Procedure, shortened: as §1
Cell Line,relative viability ([1]; first compound 0.0128 µM),relative viability ([1]; first compound 0.04048 µM),relative viability ([1]; first compound 0.128 µM),relative viability ([1]; first compound 1.28 µM),relative viability ([2]; first compound 0.0128 µM),relative viability ([2]; first compound 0.04048 µM),relative viability ([2]; first compound 0.128 µM),relative viability ([2]; first compound 1.28 µM),relative viability ([3]; first compound 0.0128 µM),relative viability ([3]; first compound 0.04048 µM),relative viability ([3]; first compound 0.128 µM),relative viability ([3]; first compound 1.28 µM),relative viability ([4]; first compound 0.0128 µM),relative viability ([4]; first compound 0.04048 µM),relative viability ([4]; first compound 0.128 µM),relative viability ([4]; first compound 1.28 µM),relative viability ([5]; first compound 0.0128 µM),relative viability ([5]; first compound 0.04048 µM),relative viability ([5]; first compound 0.128 µM),relative viability ([5]; first compound 1.28 µM)
HCC-44,0.719,0.742,0.607,0.687,0.931,0.825,0.847,1.06,0.477,0.528,0.549,0.484,1.13,0.979,0.846,1.04,1.13,0.913,1.02,0.934
HCC-827,0.253,0.251,0.211,0.238,0.903,0.963,0.94,0.685,0.817,0.658,0.666,0.744,0.336,0.318,0.357,0.29,1.01,1.06,1.1,1.04
NCI-H1623,–,–,–,–,–,–,–,–,0.422,0.342,0.399,0.37,–,–,–,–,–,–,–,–
NCI-H2347,0.45,0.447,0.431,0.382,0.795,0.751,0.797,0.736,0.406,–,0.434,0.418,0.618,0.612,0.57,0.639,0.864,0.794,0.769,0.858
PC-14,0.136,0.118,0.136,0.133,0.941,0.98,0.965,0.87,0.896,1.07,0.798,0.913,0.203,0.186,0.216,0.326,1.05,1.05,0.987,1.21
NCI-H1651,0.57,0.617,0.57,0.438,0.902,0.908,0.81,0.712,0.664,0.748,0.531,0.644,0.587,0.654,0.605,0.438,1.09,1.07,1.07,0.963
HARA,0.213,0.233,0.216,0.184,1.02,1.1,0.914,0.623,0.489,0.312,0.482,0.248,0.609,0.699,0.612,0.381,1.14,1.24,1.14,1
NCI-H1650,0.332,0.384,0.348,0.468,0.898,1.07,0.957,0.638,0.54,0.707,0.492,0.577,0.49,0.497,0.341,0.515,1.34,1.5,1.44,1.1
NCI-H1395,0.819,0.81,0.763,0.59,–,–,–,–,0.573,0.674,0.723,0.556,0.753,0.748,0.77,0.533,0.963,1.26,1.16,0.881
